The results in this text go back to patent US11820745B2, “PKC-activating compounds for the treatment of neurodegenerative diseases” (Synaptogenix, Inc., priority 2008, dated 2023).

The test system of one test is other PKC isoforms. Nature of the test: Protein kinase C assay, purified PKC isozymes: other isoforms. Format: biochemical. The following applies: data not shown. As to the method: Protein kinase C assay. Rat hippocampal cells were cultured and scraped in 0.2 ml homogenization buffer (20 triM Tris-HCl, pH 7.4, 50 mM NaF, 1 μg/ml leupeptin, and 0.1 mM PMSF) and homogenized by sonication in a Marsonix micro-probe sonicator (5 see, 10W). To measure PKC, 10 ul of cell homogenate or purified. PKC isozyme (purchased from Calbiochem) was incubated for 15 min at 37° C. in the presence of 10 μM histones, 4.89 mM CaCl2, 1.2 μg/μl phosphatidyl-L-serine, 0.18 μg/μl 1,2-dioctanoyl-sn-glycerol, 10 mM MgCl2, 20 mM HEPES (pH 7.4), 0.8 mM EDTA, 4 mM EGTA, 4% glycerol, 8 μg/ml aprotinin, 8 μg/ml leupeptin, and 2 mM benzamidine. 0.5 μCi [^γ-32P]ATP was added and ^32P-phosphoprotein formation was measured by adsorption onto phosphocellulose as described previously. Nelson and Alkon, J. Neurochemistry. 1995; 65: 2350-57. For measurements of activation by BR-101 (DCP-LA) and similar compounds, PKC activity was measured in the absence of diacylglycerol and phosphatidyl serine, as described by Kanno et al., and PKC δ, ε, η, and μ were measured in the absence of added EGTA and CaCl2, as described by Kanno et al., J. Lipid Res. 2006; 47: 1146-50. […]
To determine their PKC isozyme specificity, the new compounds were preincubated with purified PKC for five minutes and the PKC activity was measured radiometrically.

The next test has as its system PKC. Put plainly: PKC activity time course in rat hippocampal primary neurons. Format: cell-based. The following applies: sustained activation only observed in primary neurons. The procedure: (§1) Cell culture. Rat hippocampal H19-71GF-IR cells (ATCC, Manassas, Va.) were plated onto poly-L-lysine coated plates and grown at 35° C. in DMEM/10% FCS for several days until about 50% coverage was obtained. The cells were then induced to differentiate into a neuronal phenotype by replacing the medium with 5 ml N2 medium containing 10 ng/ml basic fibroblast growth factor at 39° C. and grown in T-75 flasks at 37° C. Human SH-SY5Y neuroblastoma cells (ATCC) were cultured in 45% F12K/45% MEM/10% FCS. Mouse N2A neuroblastoma cells were cultured in DMEM/10% FCS without glutamine. Rat hippocampal neurons from 18-day-old embryonic
Sprague Dawley rat brains were plated on 12- or 96-well plates coated with poly-D-lysine (Sigma-Aldrich, St, Louis, Mo.) in B-27 neurobasal medium containing 0.5 mM glutamine and 25 uM glutamate (Invitrogen, Carlsbad, Calif.) and cultured for three days in the medium without glutamate. […]
Protein kinase C assay. […] 0.5 μCi [^γ-32P]ATP was added and ^32P-phosphoprotein formation was measured by adsorption onto phosphocellulose as described previously. […] For measurements of activation by BR-101 (DCP-LA) and similar compounds, PKC activity was measured in the absence of diacylglycerol and phosphatidyl serine, as described by Kanno et al., and PKC δ, ε, η, and μ were measured in the absence of added EGTA and CaCl2, as described by Kanno et al., J. Lipid Res. 2006; 47: 1146-50. […]

Another test deals with T1, PKCα (Homo sapiens, UniProt P17252).
T1 construct: purchased Calbiochem
Put plainly: Protein kinase C assay, recombinant PKC alpha. Format: biochemical. Conditions: data not shown. The procedure: Protein kinase C assay. Recombinant PKC (1 ng of alpha or epsilon isofonn) was mixed with the BR-101 (UCP-LA) in the presence of 10 micromoiar histones, 5 mM CaCl2, 1.2 μg/μl phosphatidyl-L-serine, 0.18 μg/μl 1,2-dioctanoyl-sn-glycerol (DAG), […], […] (pH 7.4), 0.8 tnIVI EDTA, 4 mM EGTA, 4% glycerol, 8 μg/ml aprotinin, 8 μ/ml leupeptin, and 2 mM benzamidine. 0.5 micro Ci [^y32P]ATP was added. The incubation mixture was incubated for 15 min at 37 degrees in a total volume of 10 microliters. The reaction was stopped by spotting the reaction mixtures on 1×2 cm strips of cellulose phosphate paper (Whatman P81) and immediately washing twice for 1 hr in 0.5% H3PO4. The cellulose phosphate strips were counted in a scintillation counter. In some experiments, phosphatidylserine, diacylglycerol, and/or calcium were removed.

A further test concerns Aβ. Put plainly: Degradation of exogenously applied Aβ in SH-SY5Y neuroblastoma cells. Format: cell-based, human. Conditions: 0.01 to 10 μM; 100 nM exogenous monomeric Aβ-42; 24 h; FIG. 8. The procedure:
as §1
AB Measurement and Cell Viability Assay. Aβ was measured using an Aβ1-42 human fluorimetric ELISA kit (Invitrogen) according to the manufacturer's instructions. Results were measured in a Biotek Synergy HT microplate reader. AlamarBlue and CyQuant NF (Invitrogen) according to the manufacturer's instructions.
To determine whether the reduced levels of AP caused by PKC activators were due to inhibition of Aβ synthesis or activation of Aβ degradation, we applied BR-111 (DHA-CP6) (0.01 to 10 μM) and low concentrations (100 nM) of exogenous monomeric Aβ-42 to cultured SH-SY5Y cells. This concentration of Aβ is too low to produce measurable toxicity or cell death. […]

Consider `CCCCCC1CC1CC1CC1CCCCCCCC(=O)O` (stereo not shown) [BR-101, 8-[2-(2-pentyl-cyclopropylmethyl)-cyclopropyl]-octanoic acid], for which the “effects on the other PKC isoforms” value in the test with other PKC isoforms is “relatively small effects”. Further, in the test with PKC, the “duration of PKC elevation” value is “remained elevated for at least four hours”. In addition, the “effect on PKCα” value on PKCα is listed as “not affected”.

Take `CCC1CC1CC1CC1CC1CC1CC1CC1CC1CC1CC1CC1CCC(=O)OC` (stereo not shown) [BR-111, methyl-3-(2-((2-((2-((2-((2-((2-ethylcyclopropyl)methyl)cyclopropyl)methyl)cyclopropyl)methyl)-cyclopropyl)methyl)cyclopropyl)methyl)cyclopropyl)propanoate]: the “reduction of cellular levels of Aβ” value with Aβ is 45-63%.
